pIC50: −log10 of the molar value. Entries after “also recorded” stand apart in the source; their conditions may differ.
How the values were obtained:
[1] = test system: pediatric GBM tumor (#4687) orthotopic xenograft; experiment: Survival analysis, orthotopic xenograft of pediatric GBM tumor; assay type: in vivo, SCID-beige mice; conditions: 10 mg/kg daily ip, 5 days a week, 4 weeks, n=6/group
Experimental: FIG. 10 provides data relating to separase overexpression in Pediatric glioblastoma (GBM) and the effect of Sepin-1 in inhibiting the growth of glioblastoma cells in vitro and in vivo. […] SCID-beige mice after two weeks of transplantation were treated at a dose of 10 mg/kg daily ip for 5 days a week for 4 weeks with either Sepin-1 or vehicle (n=6/group).

[2] = test system: MCF10F; experiment: MTT in vitro cytotoxicity assay; assay type: cell-based; conditions: Homo sapiens, MCF-10F, Breast, 72 h, read-out: IC50 growth inhibition
Experimental: (§1) The inhibitory effect of Sepin-1 on cell growth was assayed using the 3-(4,5-dimethylthiazol-2yl)-2,5-diphenyl-tetrazolium bromide (MTT) colorimetric dye reduction method (Cancer Chemother. Pharmacol., 2006, 58, 13-23). One hundred thirty-five μl of exponentially growing cancer cells were plated at a density of 0.4-1.0×10^5 cells/well in a 96-well microtiter plate. After 16 h, Sepin-1 at specified concentrations was added to each well. After 72 h of continuous drug exposure, 15 μl of 5 mg/ml MTT was added to each well and the plates were incubated for 4 h at 37° C. Medium was replaced with 150 μl of DMSO to solubilize the formazan, and the optical density (OD) was measured at 550 nm using a microplate spectrophotometer (Anthos Analytical, Durham, N.C., USA). Cell viability was calculated by subtracting the background OD of media alone from the OD of test wells, then dividing by the OD of the control (untreated) wells. Replicates of 3 wells were used for each drug concentration. The in vitro cytotoxicity assay was repeated once and the IC50 reported was the average of two independent experiments.

[3] = test system: A549; experiment: MTT in vitro cytotoxicity assay; assay type: cell-based; conditions: Homo sapiens, A549, Lung, 72 h, read-out: IC50 growth inhibition
Experimental: as §1

[4] = test system: MDA436; experiment: MTT in vitro cytotoxicity assay; assay type: cell-based; conditions: Homo sapiens, MDA436, Breast, 72 h, read-out: IC50 growth inhibition
Experimental: as §1

[5] = test system: HCT116; experiment: MTT in vitro cytotoxicity assay; assay type: cell-based; conditions: Homo sapiens, HCT-116, HCT116, Colon, 72 h, read-out: IC50 growth inhibition
Experimental: as §1

[6] = test system: SHEP; experiment: MTT in vitro cytotoxicity assay; assay type: cell-based; conditions: Homo sapiens, Neuroblastoma, 72 h, read-out: IC50 growth inhibition
Experimental: as §1

[7] = test system: Molt4; experiment: MTT in vitro cytotoxicity assay; assay type: cell-based; conditions: Homo sapiens, MOLT-4, Molt4, Leukemia, 72 h, read-out: IC50 growth inhibition
Experimental: as §1

[8] = test system: KCNR; experiment: MTT in vitro cytotoxicity assay; assay type: cell-based; conditions: Homo sapiens, Neuroblastoma, 72 h, read-out: IC50 growth inhibition
Experimental: as §1

[9] = test system: CHLA-02-ATRT; experiment: MTT in vitro cytotoxicity assay; assay type: cell-based; conditions: Homo sapiens, Brain, 72 h, read-out: IC50 growth inhibition
Experimental: as §1

[10] = test system: IMR-32; experiment: MTT in vitro cytotoxicity assay; assay type: cell-based; conditions: Homo sapiens, IMR-32, Neuroblastoma, 72 h, read-out: IC50 growth inhibition
Experimental: as §1

[11] = test system: SY5Y; experiment: MTT in vitro cytotoxicity assay; assay type: cell-based; conditions: Homo sapiens, Neuroblastoma, 72 h, read-out: IC50 growth inhibition
Experimental: as §1

[12] = test system: CHP212; experiment: MTT in vitro cytotoxicity assay; assay type: cell-based; conditions: Homo sapiens, CHP-212, CHP212, Neuroblastoma, 72 h, read-out: IC50 growth inhibition
Experimental: as §1

[13] = test system: SK-BR-3; experiment: MTT in vitro cytotoxicity assay; assay type: cell-based; conditions: Homo sapiens, SK-BR-3, Breast, 72 h, read-out: IC50 growth inhibition
Experimental: as §1

[14] = test system: MDAMB231; experiment: MTT in vitro cytotoxicity assay; assay type: cell-based; conditions: Homo sapiens, MDA-MB-231, MDAMB231, Breast, 72 h, read-out: IC50 growth inhibition
Experimental: as §1

[15] = test system: JM1; experiment: MTT in vitro cytotoxicity assay; assay type: cell-based; conditions: Homo sapiens, JM1, Leukemia, 72 h, read-out: IC50 growth inhibition
Experimental: as §1

[16] = test system: human cancer cell lines; experiment: MTT assay, summary over all cell lines; assay type: cell-based; conditions: all cell lines of Table 1, 72 h, read-out: range of IC50 over the different cell lines
Experimental: Applicants used the MTT assay to test the inhibitory effect of Sepin-1 on the growth of a variety of human cancer cell lines, including leukemia, breast cancer and neuroblastoma.
as §1

[17] = target: T1, Separase (Homo sapiens, UniProt Q14674); experiment: In vitro cleavage of Myc-Rad21 assay; assay type: biochemical; conditions: Sepin-1 50 μm; in vitro transcribed and translated Myc-Rad21
T1 construct: made in house; host or cells: 293T cells; released from IgG-Agarose by TEV protease
T1 sequence (Q14674 whole entry): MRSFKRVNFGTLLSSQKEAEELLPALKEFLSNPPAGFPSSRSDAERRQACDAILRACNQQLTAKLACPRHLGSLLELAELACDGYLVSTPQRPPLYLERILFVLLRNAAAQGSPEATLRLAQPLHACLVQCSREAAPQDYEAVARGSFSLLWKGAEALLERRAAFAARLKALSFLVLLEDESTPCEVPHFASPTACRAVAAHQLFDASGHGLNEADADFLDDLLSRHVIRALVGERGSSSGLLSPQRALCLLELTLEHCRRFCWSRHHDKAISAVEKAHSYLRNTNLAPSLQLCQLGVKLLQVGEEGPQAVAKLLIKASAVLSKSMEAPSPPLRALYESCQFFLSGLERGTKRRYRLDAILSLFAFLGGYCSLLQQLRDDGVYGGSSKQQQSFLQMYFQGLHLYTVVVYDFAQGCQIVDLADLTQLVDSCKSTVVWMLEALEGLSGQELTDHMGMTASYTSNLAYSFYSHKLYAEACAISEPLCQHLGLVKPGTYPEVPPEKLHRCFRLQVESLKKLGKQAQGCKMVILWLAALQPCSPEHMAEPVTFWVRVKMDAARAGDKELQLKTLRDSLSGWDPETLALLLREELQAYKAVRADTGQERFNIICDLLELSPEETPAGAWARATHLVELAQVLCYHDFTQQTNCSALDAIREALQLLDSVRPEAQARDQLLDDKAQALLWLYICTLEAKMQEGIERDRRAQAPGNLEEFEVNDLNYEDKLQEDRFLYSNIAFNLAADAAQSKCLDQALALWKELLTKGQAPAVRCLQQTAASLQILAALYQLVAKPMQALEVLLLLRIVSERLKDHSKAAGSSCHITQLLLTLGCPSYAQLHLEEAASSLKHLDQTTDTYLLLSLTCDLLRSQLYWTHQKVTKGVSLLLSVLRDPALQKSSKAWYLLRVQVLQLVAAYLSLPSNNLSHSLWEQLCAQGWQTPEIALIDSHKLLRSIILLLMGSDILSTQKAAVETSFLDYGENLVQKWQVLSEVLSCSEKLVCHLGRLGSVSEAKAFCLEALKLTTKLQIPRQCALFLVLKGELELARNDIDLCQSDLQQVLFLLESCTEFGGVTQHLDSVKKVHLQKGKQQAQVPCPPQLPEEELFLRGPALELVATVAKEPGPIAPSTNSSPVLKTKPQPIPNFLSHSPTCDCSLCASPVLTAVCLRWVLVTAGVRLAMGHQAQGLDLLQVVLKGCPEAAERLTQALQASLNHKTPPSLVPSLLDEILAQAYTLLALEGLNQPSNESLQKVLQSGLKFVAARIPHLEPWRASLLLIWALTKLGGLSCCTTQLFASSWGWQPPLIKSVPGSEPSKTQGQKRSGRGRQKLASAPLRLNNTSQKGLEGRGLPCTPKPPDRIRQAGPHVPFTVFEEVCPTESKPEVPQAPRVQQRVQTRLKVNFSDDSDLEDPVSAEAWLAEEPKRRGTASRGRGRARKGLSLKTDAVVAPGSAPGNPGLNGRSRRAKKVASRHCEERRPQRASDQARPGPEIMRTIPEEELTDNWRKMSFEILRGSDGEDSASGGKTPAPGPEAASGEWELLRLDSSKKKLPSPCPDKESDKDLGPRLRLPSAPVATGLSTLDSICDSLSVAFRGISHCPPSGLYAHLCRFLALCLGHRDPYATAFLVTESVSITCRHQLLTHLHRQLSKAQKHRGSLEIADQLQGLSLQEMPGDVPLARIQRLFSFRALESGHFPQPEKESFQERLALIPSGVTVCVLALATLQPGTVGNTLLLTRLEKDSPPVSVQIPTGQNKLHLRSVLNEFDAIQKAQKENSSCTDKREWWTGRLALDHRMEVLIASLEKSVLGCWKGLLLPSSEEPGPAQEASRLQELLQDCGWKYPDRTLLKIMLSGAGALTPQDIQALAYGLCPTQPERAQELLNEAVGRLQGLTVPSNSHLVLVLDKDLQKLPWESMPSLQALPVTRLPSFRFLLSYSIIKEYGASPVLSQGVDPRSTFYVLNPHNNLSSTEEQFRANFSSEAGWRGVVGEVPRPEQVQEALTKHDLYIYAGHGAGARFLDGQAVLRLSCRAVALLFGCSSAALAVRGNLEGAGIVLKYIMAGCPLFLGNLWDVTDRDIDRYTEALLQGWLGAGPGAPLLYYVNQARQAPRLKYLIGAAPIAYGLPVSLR
Experimental: Myc-Rad21 protein was prepared by using pCS2MT Rad21 plasmid ([…]) as the template and the TNT SP6 High-Yield Wheat Germ Protein Expression kit (Promega, Madison, Wis.). Myc-Rad21 protein was mixed with Separase with or without the presence of Sepin-1. The final concentration of Sepin-1 was 50 μM. The reaction mixture was incubated in a 37° C. water bath for 1 h. The cleavage of myc-Rad21 was immunoblotted with Rad21 pAb.

[18] = test system: MCF7 xenografts; experiment: Growth inhibition of MCF7 xenograft tumors; assay type: in vivo, SCID-beige mice
Experimental: For treatment studies, MCF7 xenografts (ER+ PR+ HER2−) were generated by injection of one million cultured cells grown under standard in vitro conditions as previously described (Proc. Natl. Acad. Sci. U. S. A 105, 2008, 13033-13038). Donor tumors for PDX lines MC1 and BCM-5471 were divided into small fragments and retransplanted into the fat pat of recipient SCID Beige mice (5 mice per group). When the tumors reached approximately ˜200 mg, mice were treated with either vehicle or Sepin-1. Sepin-1 was injected at dose of 10 mg/kg daily for 5 days a week for 3 weeks. […] Vehicle injected mice served as controls. Size of the xenografts were measured every four days using calipers and tumor weight was estimated using the guidelines by NCI for xenograft evaluation (http://ncifrederick.cancer.gov/Lasp/Acuc/Frederick/Media/Documents/ACUC14.pdf). After 3 weeks treatment, the tumors were harvested and fixed in 10% Buffed Formalin Phosphate (Fisher Scientific, Pittsburgh, Pa.) overnight. The tumor tissues were washed with PBS for 3×30 min; dehydrated for 1 h at 70%, 80%, 90% and 100% two times; and immerged in Xylene several times until the tissues became clear. The samples were embedded in wax and sectioned with 5 μm in thickness. All mice were maintained in accordance with the NIH Guide for the Care and Use of Laboratory Animals with approval from the Baylor College of Medicine Institutional Animal Care and Use Committee.

[19] = MCF7 xenograft tumors treated with Sepin-1 versus vehicle

With `CC1(C)[N+]([O-])=c2ccc([N+](=O)[O-])cc2=[N+]1[O-]` [Sepin-1, 2,2-dimethyl-5-nitro-2H-benzimidazole-1,3 dioxide] the “life span of treated mice” value [1] was “significant increase in the life span”, the pIC50 [2] was 4.32 and the pIC50 [3] was 4.27. The pIC50 [4] was 4.75, the pIC50 [5] was 4.80 and the pIC50 [6] was 4.20. For the same compound, the pIC50 [7] was 5.49, the pIC50 [8] was 5.31 and the pIC50 [9] was 5.12. The pIC50 [10] was 5.32, the pIC50 [11] was 5.31 and the pIC50 [12] was 5.05. For the same compound, the pIC50 [13] was 5.05, the pIC50 [14] was 4.67 and the pIC50 [15] was 6.00. For the same compound, the pIC50 [16] was ≤ 6.00, the “inhibition of Rad21 cleavage by activated Separase” value [17] was “could inhibit the Rad21 cleavage by activated Separase; also recorded: inhibits the cleavage of Separase substrate Rad21” and the “growth of MCF7 xenograft tumors” value ([18]; 10 mg/kg daily, 5 days a week, 3 weeks) was “inhibits the growth of xenograft tumor derived from MCF-7”. The “apoptotic bodies in H&E stained tumor sections” value [18, 19] was “increase of apoptotic bodies” and the “cleaved caspase-3 staining of tumor sections” value [18, 19] was “significantly increased”.

— patent US10052310B2, “Separase inhibitors and uses thereof” (Baylor College of Medicine, priority 2013, dated 2018)
